Reference: article PMC3663906 (Journal of medicinal chemistry, 2013)

How the values were obtained:
[1] = test system: endocytosis of transferrin in T. brucei; conditions: cited from earlier work
HepG2 cells = assay: HepG2 cell toxicity assay; assay type: cell-based; conditions: Homo sapiens, HepG2, read-out: HepG2 IC50, MTT cytotoxicity, Tables 5 and 6
T. brucei [2] = assay: Trypanosome cell cycle analysis
T. brucei brucei CA427 = assay: Mouse model of HAT
[3] = Mouse oral pharmacokinetic study; assay type: in vivo
[4] = test system: endocytosis of transferrin in T. brucei; assay: Receptor-mediated endocytosis of transferrin in the trypanosome
T. brucei [5] = conditions: cited from earlier work

## CS(=O)(=O)CCNCc1ccc(-c2ccc3ncnc(Nc4ccc(OCc5cccc(F)c5)c(Cl)c4)c3c2)o1 [Compound 1, lapatinib]
[1]
  effect on endocytosis of transferrin in the trypanosome: inhibited endocytosis of transferrin

## O=S(=O)(c1cccc(-c2ccc3ncnc(Nc4ccc(OCc5cccc(F)c5)c(Cl)c4)c3c2)c1)N1CCOCC1 [Compound 10k, N-(3-chloro-4-((3-fluorobenzyl)oxy)phenyl)-6-(3-(morpholinosulfonyl)phenyl)quinazolin-4-amine]
HepG2 cells
  IC50: > 20 µM

## O=S(=O)(c1ccc(-c2ccc3ncnc(Nc4ccc(OCc5cccc(F)c5)c(Cl)c4)c3c2)cc1)N1CCCCC1 [Compound 10l, N-(3-chloro-4-((3-fluorobenzyl)oxy)phenyl)-6-(4-(piperidin-1-ylsulfonyl)phenyl)quinazolin-4-amine]
HepG2 cells
  IC50: > 20 µM

## O=S(=O)(c1cccc(-c2ccc3ncnc(Nc4ccc(OCc5cccc(F)c5)c(Cl)c4)c3c2)c1)N1CCCCC1 [Compound 10m, N-(3-chloro-4-((3-fluorobenzyl)oxy)phenyl)-6-(3-(piperidin-1-ylsulfonyl)phenyl)quinazolin-4-amine]
HepG2 cells
  IC50: > 20 µM

## Fc1cccc(COc2ccc(Nc3ncnc4ccc(-c5cccc(N6CCOCC6)c5)cc34)cc2Cl)c1 [Compound 23a, N-(3-chloro-4-((3-fluorobenzyl)oxy)phenyl)-6-(3-morpholinophenyl)quinazolin-4-amine]
T. brucei [2]
  effect on the cell cycle: blocks duplication of the kinetoplast and arrests cytokinesis, without inhibiting division of the trypanosome nucleus
T. brucei [2]; DAPI microscopy
  fraction of cells containing two nuclei and one kinetoplast (1K2N): selectively increased
  number of cells containing one nucleus (1K1N, 1Ke1N): reduced
T. brucei brucei CA427; 10 mg/kg twice per day i.p.
  survival on day 8 (all untreated mice had died): all alive
T. brucei brucei CA427; 10 mg/kg twice per day oral
  survival: died in the same time frame as control mice
T. brucei brucei CA427; mouse, 40 mg/kg dose once per day
  toxicity in multi-day regimen: drug-related toxicity was observed
[3]
  oral bioavailability: orally bioavailable
[4]
  effect on receptor-mediated endocytosis of transferrin: no effect

## C=CC(=O)Nc1cc2c(Nc3ccc(F)c(Cl)c3)ncnc2cc1OCCCN1CCOCC1 [canertinib]
T. brucei [5]
  EC50 for killing T. brucei: low micromolar range
